Results published in patent US5474757A, “Prevention of acetaminophen overdose toxicity with organosulfur compounds” (priority 1992, dated 1995).
Values joined by “and” are separate entries in the source; they are usually repeats but may differ in a detail not shown here. Equal values may be shown once. “Also recorded” adds a separate entry of the source. Read-outs that look alike come from different tables or passages of the source.

Key:
[1] = tested on: hepatotoxicity; settings: cited from earlier work
[2] = tested on: acetaminophen-induced hepatotoxicity; test: animal or person
Text: Blood samples were obtained from the jugular vein of CO2 -anesthetizedanimals. The blood was allowed to clot at room temperature and serum was separated by centrifugation. […] Biochem. Biophys.
Randomly-selected samples of the major hepatic lobe were fixed in 10% buffered formalin for histological evaluation. Samples were subsequently embedded in Paraplast (Fisher Scientific) and sectioned at 6 μm on a rotary microtome. Tissue sections were stained with hematoxylin-eosine-phloxine for examination. Extent of tissue damage was determined using a Presage CV-6 Image Analysis System (Advanced Imaging Concepts, Inc.). Images of randomly-selected slides (3 slides/animal, 2-3 animals/group) containing full cross sections of the major hepatic lobe were projected onto a computer screen and the image captured. The areas of damage were then outlined on the screen and the areas quantated using interactive software. The area of damage was shown as a percentage of the total hepatic area for each section. All determinations were made without knowledge of treatment group.
Data were analyzed by the Newman-Keuls multiple comparison procedure on the rank score analysis.
All experiments were replicated at least once.
As a Comparative Example, 300 mg/kg N-acetylcysteine was also administered immediately after administration of 0.2 g/kg acetaminophen.
As a Comparative Example, 300 mg/kg N-acetylcysteine was also administered 1 hour after administration of 0.2 g/kg acetaminophen.

[3] = tested on: P-450 2E1; test: Hepatic microsomal NDMA demethylase activity after a single oral dose in mice; format: in vivo, mouse; settings: for NDMA demethylase activity, % of the control level: 50 mg/kg single oral dose
Method: (§1) Biochem. Biophys. 238:42-48 (1985).
(§2) In Example 3, this effect was studied in mice. In Example 3, changes in hepatic monooxygenase enzymes after a single oral dose of DASO2 were studied. DASO2 (50 mg/kg) was administrated to mice intragastrically and sacrificed at the indicated time. Control (0 time) mice received distilled water only.
(§3) Hepatic microsomal NDMA demethylase activity (O) is expressed as nmol HCHO produced/min/mg. Pentoxyresorufin ([ ]) and ethoxyresorufin dealkylase activities are expressed as pmol resorufin produced/min/mg. Each point represents the mean ±S.D. of five separate microsomal preparations. *p<0.05 compared to control.

[4] = tested on: P-450 1A2; test: Hepatic microsomal ethoxyresorufin (EORR) dealkylase activity after a single oral dose in mice; format: in vivo, mouse
Method: as §1, §2, §3

[5] = tested on: acetaminophen-induced hepatotoxicity; test: Protective effect against acetaminophen overdose in rats (serum GPT, LDH, liver damage); format: in vivo, rat (male Fisher 344)
Method: Brady et al., "Effect of […] […] Biochem. […] Extent of tissue damage was determined using a […]-6 Image Analysis System (Advanced Imaging Concepts, Inc.). […] All determinations were made without knowledge of treatment group. […] All experiments were replicated at least once.

[6] = tested on: P-450 2E1; settings: cited from earlier work; for liver microsomal P-450 2E1-dependent (NDMA demethylase) activity: treatment of rats
[7] = tested on: P-450 2E1; settings: isolated rat liver microsomes; cited from earlier work
[8] = tested on: p-nitrophenol hydroxylase; settings: isolated rat liver microsomes; cited from earlier work
[9] = tested on: acetaminophen overdose; settings: cited from earlier work; for protective action: animals; for protection in acetaminophen overdose: Prescott et al.
[10] = tested on: acetaminophen bioactivation; settings: cited from earlier work
[11] = APAP only, 0.2 g/kg oral, fasted mice, 24 h
[12] = 5 mg/kg oral, 1 h after APAP 0.4 g/kg
[13] = 5 mg/kg oral, 3 hours after APAP 0.4 g/kg
[14] = 15 mg/kg oral, 1 h after APAP 0.4 g/kg
[15] = 50 mg/kg oral, 1 hour after APAP 0.4 g/kg, mean ± SD of five rats
[16] = 50 mg/kg oral, 3 hours after APAP 0.4 g/kg
[17] = 50 mg/kg oral, 6 hours after APAP 0.4 g/kg
[18] = 5 mg/kg oral, immediately (0 min) after APAP 0.2 g/kg
[19] = 10 mg/kg oral, 20 min after APAP 0.2 g/kg
[20] = 25 mg/kg oral, 20 min after APAP 0.2 g/kg
[21] = 25 mg/kg oral, 1 hour after APAP 0.2 g/kg
[22] = 25 mg/kg oral, immediately (0 min) after APAP 0.2 g/kg
[23] = 50 mg/kg oral, immediately (0 min) after APAP 0.2 g/kg
[24] = orally less than 24 hours after the overdose
[25] = 600 mg/kg oral, 1 hour after APAP 0.4 g/kg
[26] = 600 mg/kg oral, 6 hours after APAP 0.4 g/kg
[27] = 300 mg/kg oral, 1 hour after APAP 0.2 g/kg
[28] = 300 mg/kg oral, immediately after APAP 0.2 g/kg

For `CC(=O)Nc1ccc(O)cc1` [APAP, N-acetyl-p-aminophenol, reference compound], the “plasma acetaminophen level always associated with hepatic damage” value ([1]; 4 hours after ingestion) is given as “greater than 300 mcg/ml”, the “plasma acetaminophen level always associated with hepatic damage” value ([1]; 12 hours after ingestion) is given as “greater than 50 mcg/ml” and the fatalities ([1]; acute overdoses of less than 15 g) is given as “rare”. The “single dose after which hepatotoxicity may occur” value ([1]; in vivo) was 7.5 to 10 g, the “plasma acetaminophen half-life above which hepatic necrosis is likely” value ([1]; overdose) was “exceeds 4 hours” and the “Extent of liver damage” value [2, 11] was 26-40%. For the same molecule, the LDH [2, 11] was 17227 ± 3464 U/L, the Survival [2, 11] was 2/5 and the “increase of serum LDH” value ([2]; acetaminophen 0.2 g/kg, mice) was 20 fold. The liver histology ([2]; acetaminophen 0.2 g/kg, surviving mice (FIG. 2B)) was “hepatocellular necrosis; also recorded: typical centrilobular degeneration, necrosis, and inflammation”.
For `C=CCS(=O)(=O)CC=C` [DASO2, diallyl sulfone], the “NDMA demethylase activity, % of the control level” value (from here on “NDMA demethylase activity, %”) ([3]; 0.5 hours) was 31%, the “NDMA demethylase activity, %” value ([3]; 1 hour) was 54% and the “NDMA demethylase activity, %” value ([3]; 3 hours) was 49%. The “NDMA demethylase activity, %” value ([3]; 6 hours) was 73%, the “hepatic cytochrome P-450 2E1 activity” value ([3]; oral administration, mice) was “rapid decreases” and the “ethoxyresorufin (EORR) dealkylase activity, % of control level” value (“ethoxyresorufin … % of control level” for short) ([4]; 50 mg/kg single oral dose, 0.5 hours) was 79%. The “ethoxyresorufin … % of control level” value ([4]; 50 mg/kg single oral dose, 1 hour) was 39%, the “ethoxyresorufin … % of control level” value ([4]; 50 mg/kg single oral dose, 3 hours) was 52% and the “ethoxyresorufin … % of control level” value ([4]; 50 mg/kg single oral dose, 6 hours) was 46%. The EORR dealkylase activity ([4]; 50 mg/kg single oral dose, after 15 hours) was “returned to control levels”, the “hepatic cytochrome P-450 1A2 activity” value ([4]; oral administration, mice) was “rapid decreases” and the “Extent of liver necrosis (grade)” value [5, 12] was 1. For the same molecule, the GPT [5, 12] was 162 ± 27.3 U/L, the LDH [5, 12] was 377 ± 71 U/L and the “Extent of liver damage” value [5, 13] was 23-38%. For the same molecule, the GPT [5, 13] was 139 ± 46 U/L, the “Extent of liver necrosis (grade)” value [5, 14] was 1 and the GPT [5, 14] was 52 ± 8.2 U/L. The LDH [5, 14] was 222 ± 44 U/L, the “Extent of liver necrosis (grade)” value ([5]; 50 mg/kg oral, 1 h after APAP 0.4 g/kg) was 0 and the “Extent of liver damage” value ([5]; 50 mg/kg oral, 1 hour after APAP 0.4 g/kg) was 0-5%. The GPT [5, 15] was 48 ± 9 U/L and 48 ± 9.6 U/L, the LDH [5, 15] was 279 ± 50 U/L and 279 ± 41 U/L and the “Extent of liver necrosis (grade)” value ([5]; 50 mg/kg oral, 3 h after APAP 0.4 g/kg) was 1. For the same molecule, the “Extent of liver damage” value [5, 16] was 4-8%, the GPT [5, 16] was 133 ± 64 U/L and the LDH [5, 16] was 315 ± 120 U/L. For the same molecule, the “Extent of liver necrosis (grade)” value ([5]; 50 mg/kg oral, 6 h after APAP 0.4 g/kg) was 2, the “Extent of liver damage” value [5, 17] was 21-40% and the GPT [5, 17] was 182 ± 47 U/L. The LDH [5, 17] was 375 ± 111 U/L, the minimal effective dose ([5]; Rattus norvegicus, rats, read-out: low dose at which protective effect was demonstrated) was 5 mg/kg and the “Extent of liver damage” value [2, 18] was 3-5%. The GPT [2, 18] was 51 ± 8 U/L, the LDH [2, 18] was 433 ± 98 U/L and the Survival [2, 18] was 5/5. For the same molecule, the GPT [2, 19] was 212 ± 1 U/L, the LDH [2, 19] was 16639 ± 8578 U/L and the Survival [2, 19] was 5/5. For the same molecule, the GPT [2, 20] was 89 ± 13 U/L, the LDH [2, 20] was 648 ± 231 U/L and the Survival [2, 20] was 5/5. The “Extent of liver damage” value [2, 21] was 3-10%, the GPT [2, 21] was 110 ± 70 U/L and the LDH [2, 21] was 1340 ± 1568 U/L. For the same molecule, the Survival [2, 21] was 5/5, the “Extent of liver damage” value [2, 22] was 5-10% and the GPT [2, 22] was 66 ± 18 U/L and 84 ± 37 U/L. For the same molecule, the LDH [2, 22] was 611 ± 252 U/L, the Survival [2, 22] was 5/5 and the “Extent of liver damage” value [2, 23] was 4-9%. For the same molecule, the GPT [2, 23] was 79 ± 5 U/L, the LDH [2, 23] was 772 ± 1138 U/L and 772 ± 138 U/L and the Survival [2, 23] was 5/5. The ED (maximal) ([2]; Mus musculus, read-out: dose sufficient to produce maximal protection) was 5 mg/kg, the minimal effective dose ([2]; Mus musculus, read-out: low dose at which protective effect was demonstrated) was 5 mg/kg and the “liver microsomal NDMA demethylase activity” value ([6]; 200 mg/kg, rats) was “marked decrease”. For the same molecule, the “liver microsomal P-450 2E1-dependent (NDMA demethylase) activity” value [6] was “decreased”.
For `C=CC[S+]([O-])CC=C` [DASO, diallyl sulfoxide], the “inhibition of P-450 2E1-catalyzed NDMA demethylase” value [7] is given as “competitively”, the “inhibition of p-nitrophenol hydroxylase” value [8] is given as “competitively” and the “liver microsomal P-450 2E1-dependent (NDMA demethylase) activity” value [6] is given as “decreased”.
In the case of `N[C@@H](CS)C(=O)O` [L-cysteine], the protective action [9] is given as “protective action” and the “effectiveness in acetaminophen overdose” value [9, 24] is given as “effective”.
In the case of `CSCC[C@H](N)C(=O)O` [L-methionine], the “protection in acetaminophen overdose” value [9] is listed as “some protection”, the protective action [9] is listed as “protective action” and the “effectiveness in acetaminophen overdose” value [9, 24] is listed as “effective”.
In the case of `CC(=O)N[C@@H](CS)C(=O)O` [N-AC, N-acetyl-L-cysteine, reference compound], the protective action [9] is given as “protective action”, the “effectiveness in acetaminophen overdose” value ([9]; given orally) is given as “effective” and the “effectiveness in acetaminophen overdose” value [9, 24] is given as “effective”. For the same molecule, the “Extent of liver damage” value [5, 16] was 17-38%, the GPT [5, 16] was 135 ± 40 U/L and the “prevention of liver necrosis and GPT elevation” value ([5]; 50 mg/kg, 3 hours after APAP, rats) was “partially prevented the development of liver necrosis and the elevation of the GPT level”. The “Extent of liver damage” value [5, 25] was 1-5%, the GPT [5, 25] was 47 ± 4 U/L and the LDH [5, 25] was 174 ± 35 U/L. The “Extent of liver damage” value [5, 26] was 13-28%, the GPT [5, 26] was 153 ± 62 U/L and the LDH [5, 26] was 269 ± 92 U/L. For the same molecule, the “protection against liver toxicity” value ([5]; 600 mg/kg, 1 hr after APAP, compared with DASO2 50 mg/kg, rats) was “as effective as DASO2 (50 mg/kg) in preventing liver toxicity”, the protection ([5]; 600 mg/kg, 6 hours after APAP, rats) was “partial protection” and the “dosage needed for similar protection relative to DAS / DASO2” value ([5]; N-acetylcysteine dose versus DAS and DASO2 dose) was “more than ten-fold higher”. The “Extent of liver damage” value [2, 27] was 10-17%, the GPT [2, 27] was 131 ± 68 U/L and the LDH [2, 27] was 1140 ± 96 U/L. The Survival [2, 27] was 5/5, the “Extent of liver damage” value [2, 28] was 0% and the GPT [2, 28] was 56 ± 4 U/L. The LDH [2, 28] was 629 ± 124 U/L, the Survival [2, 28] was 5/5 and the protection against hepatotoxicity ([2]; 300 mg/kg, 1 hour after acetaminophen, mice) was “partial protection”. The “protection against acetaminophen toxicity” value ([2]; 300 mg/kg, immediately after acetaminophen, mice) was “protected against acetaminophen toxicity” and the “effectiveness against acetaminophen toxicity” value ([2]; 3 hours after acetaminophen dosing, mice (data not shown)) was “neither DASO2, N-AC nor the combination treatment was effective”.
For `CN/C(=N/CCSCc1nc[nH]c1C)NC#N` [cimetidine], the “inhibition of acetaminophen bioactivation” value [10] is given as “inhibit acetaminophen bioactivation”.
In the case of `NCCS` [cysteamine], the “protection in acetaminophen overdose” value [9] is given as “some protection”.
For `C[S+](C)[O-]` [dimethyl sulfoxide], the “inhibition of acetaminophen bioactivation” value [10] is listed as “inhibit acetaminophen bioactivation”.
For `CCO` [ethanol], the “inhibition of acetaminophen bioactivation” value [10] is listed as “inhibit acetaminophen bioactivation”.
